Laboratory results as given in PubChem BioAssay (NCI).
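Exposure lasted 48 hours, with cells grown in 96-well plates and compounds tested at five concentrations. GI50 is the concentration that inhibits growth by half. TGI: total growth inhibition.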

Test system: RPMI-8226 leukemia
Test: growth of human tumour cells (NCI), 48 h

| SMILES | TGI [µM] | GI50 [µM] |
| --- | --- | --- |
| CC(C)(C)N1CC2(CCCCC2)C1=O | > 100 | – |
| O=C(O)c1ccccc1-c1ccccc1C(=O)Nc1ccc2c(c1)Cc1cc(F)ccc1-2 | 82.8 | – |
| Cc1cc(NC(=O)c2ccc(C)c(Nc3nccc(-c4cccnc4)n3)c2)cc(-n2cnc(C)c2)c1 | 27.6 | 6.45 |
| O=C(O)c1c(-c2nccc3ccccc23)[nH]c(-c2ccccc2)c1S(=O)(=O)O | > 100 | – |
| Cc1[nH]n(-c2cccc(Cl)c2)c(=O)c1/C=C1\C=Nc2ccc(Br)cc21 | 22.6 | 3.08 |
| CC(=O)c1c(CBr)n([O-])c2ccccc2[n+]1=O | 30.5 | 4.9 |
| CCN(CC)CCNCC(=O)Oc1ccc(/C=C/C(=O)CC(=O)/C=C/c2ccc(OC(=O)CNCCN(CC)CC)c(OC)c2)cc1OC | 6.01 | 1.91 |
| NC1CCCC[C@H]1N.N[C@@H]1CCCC[C@@H]1N.O=C(P(=O)([O-])[O-])P(=O)([O-])[O-].[Pt+4].[Pt+4] | > 100 | 31.1 |
| O=C(O)Cc1c(O)ccc2ccccc12 | > 100 | – |
| Cc1ccc(Nc2nc(N)c(C(=O)c3ccc(C#N)cc3)s2)cc1 | > 100 | 0.56 |
| CN1CCc2c(Sc3ccc(C(=O)NO)cc3)c3ccccc3n2C1 | 11.1 | 1.36 |
| CC(=O)O[C@@H]1C[C@]2(C(C)C)O[C@@]1(C)[C@@H]1CCC(C)=C1[C@@H]2OC(=O)/C=C/c1ccccc1 | 57.4 | 9.63 |
| NC(N)=N/N=C/c1cc(Cl)cc(Cl)c1O | > 100 | – |
| c1ccc2c3ccn4cc5c(cc4c-3nc2c1)CCCC5 | > 100 | 5.11 |
| CCN1C(=O)N(CC)C2C1NC(=S)N2/N=C/C=C/c1cccs1 (stereo not drawn) | > 38.9 | 0.413 |
| COc1ccc(C(=O)C(CO)Oc2ccccc2OC)cc1OC (stereo not drawn) | > 100 | – |

Test system: SK-MEL-5 melanoma
Test: growth of human tumour cells (NCI), 48 h

| SMILES | TGI [µM] | GI50 [µM] |
| --- | --- | --- |
| CC(C)(C)N1CC2(CCCCC2)C1=O | > 100 | – |
| O=C(O)c1ccccc1-c1ccccc1C(=O)Nc1ccc2c(c1)Cc1cc(F)ccc1-2 | 47.2 | – |
| Cc1cc(NC(=O)c2ccc(C)c(Nc3nccc(-c4cccnc4)n3)c2)cc(-n2cnc(C)c2)c1 | 12.7 | 5.04 |
| O=C(O)c1c(-c2nccc3ccccc23)[nH]c(-c2ccccc2)c1S(=O)(=O)O | > 100 | – |
| Cc1[nH]n(-c2cccc(Cl)c2)c(=O)c1/C=C1\C=Nc2ccc(Br)cc21 | > 100 | 9.48 |
| CC(=O)c1c(CBr)n([O-])c2ccccc2[n+]1=O | 22.6 | 10.5 |
| CCN(CC)CCNCC(=O)Oc1ccc(/C=C/C(=O)CC(=O)/C=C/c2ccc(OC(=O)CNCCN(CC)CC)c(OC)c2)cc1OC | 9.65 | 2.57 |
| NC1CCCC[C@H]1N.N[C@@H]1CCCC[C@@H]1N.O=C(P(=O)([O-])[O-])P(=O)([O-])[O-].[Pt+4].[Pt+4] | > 100 | > 100 |
| O=C(O)Cc1c(O)ccc2ccccc12 | > 100 | – |
| Cc1ccc(Nc2nc(N)c(C(=O)c3ccc(C#N)cc3)s2)cc1 | 10.7 | 0.32 |
| CN1CCc2c(Sc3ccc(C(=O)NO)cc3)c3ccccc3n2C1 | 6.67 | 2.39 |
| CC(=O)O[C@@H]1C[C@]2(C(C)C)O[C@@]1(C)[C@@H]1CCC(C)=C1[C@@H]2OC(=O)/C=C/c1ccccc1 | 78.5 | 22.5 |
| NC(N)=N/N=C/c1cc(Cl)cc(Cl)c1O | > 100 | – |
| c1ccc2c3ccn4cc5c(cc4c-3nc2c1)CCCC5 | 10.3 | 2.42 |
| CCN1C(=O)N(CC)C2C1NC(=S)N2/N=C/C=C/c1cccs1 (stereo not drawn) | 5.93 | 0.274 |
| COc1ccc(C(=O)C(CO)Oc2ccccc2OC)cc1OC (stereo not drawn) | > 100 | – |

Test system: NCI-H522 lung
Test: growth of human tumour cells (NCI), 48 h

| SMILES | TGI [µM] | GI50 [µM] |
| --- | --- | --- |
| CC(C)(C)N1CC2(CCCCC2)C1=O | > 100 | – |
| O=C(O)c1ccccc1-c1ccccc1C(=O)Nc1ccc2c(c1)Cc1cc(F)ccc1-2 | 63 | – |
| Cc1cc(NC(=O)c2ccc(C)c(Nc3nccc(-c4cccnc4)n3)c2)cc(-n2cnc(C)c2)c1 | 15.3 | 4.89 |
| O=C(O)c1c(-c2nccc3ccccc23)[nH]c(-c2ccccc2)c1S(=O)(=O)O | > 100 | – |
| Cc1[nH]n(-c2cccc(Cl)c2)c(=O)c1/C=C1\C=Nc2ccc(Br)cc21 | 17.5 | 3.67 |
| CC(=O)c1c(CBr)n([O-])c2ccccc2[n+]1=O | 8.91 | 2.93 |
| CCN(CC)CCNCC(=O)Oc1ccc(/C=C/C(=O)CC(=O)/C=C/c2ccc(OC(=O)CNCCN(CC)CC)c(OC)c2)cc1OC | 11.6 | 3.29 |
| NC1CCCC[C@H]1N.N[C@@H]1CCCC[C@@H]1N.O=C(P(=O)([O-])[O-])P(=O)([O-])[O-].[Pt+4].[Pt+4] | 47.4 | 11.9 |
| O=C(O)Cc1c(O)ccc2ccccc12 | > 100 | – |
| Cc1ccc(Nc2nc(N)c(C(=O)c3ccc(C#N)cc3)s2)cc1 | – | 0.221 |
| CN1CCc2c(Sc3ccc(C(=O)NO)cc3)c3ccccc3n2C1 | 2.62 | 1.14 |
| CC(=O)O[C@@H]1C[C@]2(C(C)C)O[C@@]1(C)[C@@H]1CCC(C)=C1[C@@H]2OC(=O)/C=C/c1ccccc1 | > 100 | 20.7 |
| NC(N)=N/N=C/c1cc(Cl)cc(Cl)c1O | > 100 | – |
| c1ccc2c3ccn4cc5c(cc4c-3nc2c1)CCCC5 | 5.75 | – |
| CCN1C(=O)N(CC)C2C1NC(=S)N2/N=C/C=C/c1cccs1 (stereo not drawn) | 1.69 | 0.214 |
| COc1ccc(C(=O)C(CO)Oc2ccccc2OC)cc1OC (stereo not drawn) | > 100 | – |

Test system: SF-295 CNS
Test: growth of human tumour cells (NCI), 48 h

| SMILES | TGI [µM] | GI50 [µM] |
| --- | --- | --- |
| CC(C)(C)N1CC2(CCCCC2)C1=O | > 100 | – |
| O=C(O)c1ccccc1-c1ccccc1C(=O)Nc1ccc2c(c1)Cc1cc(F)ccc1-2 | 94.2 | – |
| Cc1cc(NC(=O)c2ccc(C)c(Nc3nccc(-c4cccnc4)n3)c2)cc(-n2cnc(C)c2)c1 | 12.2 | 3.07 |
| O=C(O)c1c(-c2nccc3ccccc23)[nH]c(-c2ccccc2)c1S(=O)(=O)O | > 100 | – |
| Cc1[nH]n(-c2cccc(Cl)c2)c(=O)c1/C=C1\C=Nc2ccc(Br)cc21 | 14.2 | 3.6 |
| CC(=O)c1c(CBr)n([O-])c2ccccc2[n+]1=O | 43.8 | 19.8 |
| CCN(CC)CCNCC(=O)Oc1ccc(/C=C/C(=O)CC(=O)/C=C/c2ccc(OC(=O)CNCCN(CC)CC)c(OC)c2)cc1OC | 22.2 | 5.55 |
| NC1CCCC[C@H]1N.N[C@@H]1CCCC[C@@H]1N.O=C(P(=O)([O-])[O-])P(=O)([O-])[O-].[Pt+4].[Pt+4] | > 100 | 96.7 |
| O=C(O)Cc1c(O)ccc2ccccc12 | > 100 | – |
| Cc1ccc(Nc2nc(N)c(C(=O)c3ccc(C#N)cc3)s2)cc1 | 37.7 | 0.328 |
| CN1CCc2c(Sc3ccc(C(=O)NO)cc3)c3ccccc3n2C1 | 4.84 | 2.13 |
| CC(=O)O[C@@H]1C[C@]2(C(C)C)O[C@@]1(C)[C@@H]1CCC(C)=C1[C@@H]2OC(=O)/C=C/c1ccccc1 | > 100 | 38.6 |
| NC(N)=N/N=C/c1cc(Cl)cc(Cl)c1O | > 100 | – |
| c1ccc2c3ccn4cc5c(cc4c-3nc2c1)CCCC5 | 10.5 | 2.37 |
| CCN1C(=O)N(CC)C2C1NC(=S)N2/N=C/C=C/c1cccs1 (stereo not drawn) | > 100 | 0.258 |
| COc1ccc(C(=O)C(CO)Oc2ccccc2OC)cc1OC (stereo not drawn) | > 100 | – |

Test system: SK-MEL-2 melanoma
Test: growth of human tumour cells (NCI), 48 h

| SMILES | TGI [µM] | GI50 [µM] |
| --- | --- | --- |
| CC(C)(C)N1CC2(CCCCC2)C1=O | > 100 | – |
| O=C(O)c1ccccc1-c1ccccc1C(=O)Nc1ccc2c(c1)Cc1cc(F)ccc1-2 | 37.9 | – |
| Cc1cc(NC(=O)c2ccc(C)c(Nc3nccc(-c4cccnc4)n3)c2)cc(-n2cnc(C)c2)c1 | 12.9 | 5.03 |
| O=C(O)c1c(-c2nccc3ccccc23)[nH]c(-c2ccccc2)c1S(=O)(=O)O | > 100 | – |
| Cc1[nH]n(-c2cccc(Cl)c2)c(=O)c1/C=C1\C=Nc2ccc(Br)cc21 | 24.6 | 10.5 |
| CC(=O)c1c(CBr)n([O-])c2ccccc2[n+]1=O | 30 | 14.4 |
| CCN(CC)CCNCC(=O)Oc1ccc(/C=C/C(=O)CC(=O)/C=C/c2ccc(OC(=O)CNCCN(CC)CC)c(OC)c2)cc1OC | 12.7 | 3.39 |
| NC1CCCC[C@H]1N.N[C@@H]1CCCC[C@@H]1N.O=C(P(=O)([O-])[O-])P(=O)([O-])[O-].[Pt+4].[Pt+4] | > 100 | > 100 |
| O=C(O)Cc1c(O)ccc2ccccc12 | > 100 | – |
| Cc1ccc(Nc2nc(N)c(C(=O)c3ccc(C#N)cc3)s2)cc1 | 46.1 | 0.435 |
| CN1CCc2c(Sc3ccc(C(=O)NO)cc3)c3ccccc3n2C1 | 4.55 | 2.01 |
| CC(=O)O[C@@H]1C[C@]2(C(C)C)O[C@@]1(C)[C@@H]1CCC(C)=C1[C@@H]2OC(=O)/C=C/c1ccccc1 | > 100 | > 100 |
| NC(N)=N/N=C/c1cc(Cl)cc(Cl)c1O | > 100 | – |
| c1ccc2c3ccn4cc5c(cc4c-3nc2c1)CCCC5 | 10.2 | 3.05 |
| CCN1C(=O)N(CC)C2C1NC(=S)N2/N=C/C=C/c1cccs1 (stereo not drawn) | > 100 | 0.529 |
| COc1ccc(C(=O)C(CO)Oc2ccccc2OC)cc1OC (stereo not drawn) | > 100 | – |
